# Columns and labels:
# [1] = tested on: rat hippocampal slice; test: Somatostatin release from rat hippocampal slice upon high K+ (50 mM) stimulation, radioimmunoassay; assay type: cell-based; conditions: property significant at 10^-7 M and 10^-6 M vs control (Dunnett)
# Procedure: Rat hippocampal slices (thickness 350 μm, round slice) were prepared by a standard method. Twenty rat hippocampal slices were placed in a perfusion chamber, incubated at 37° C. and perfused by a batch method while exchanging the incubation buffer every 10 minutes. The incubation buffer used had the composition as noted below. A mixed gas of oxygen (95%) and carbon dioxide (5%) was used to saturate the buffer. Composition of incubation buffer: NaCl, 124 mM; KCl, 5 mM; KH2PO4, 1.24 mM; MgSO4, 1.3 mM; CaCl2, 2.4 mM; NaHCO3, 26 mM; D-glucose, 10 mM
# Perfusion for 150 minutes gave fractions 1-15. To fraction 9 was applied a high K^+ (50 mM) stimulation. Compound 1 was added to fractions 7-15 to the concentration of 10^−9 M, 10^−7 M, […], 10^−6 M, respectively. […] The respective fractions thus obtained were concentrated by lyophilization and somatostatin in the perfusate was quantified by radioimmunoassay (RIA). After the completion of the experiment, somatostatin remaining in the slices was extracted by a conventional method and quantified by radioimmunoassay. The somatostatin amount released by high K^+ (50 mM) stimulation was calculated and the amount of somatostatin released due to the property of compound 1 was measured.
# Somatostatin release (%) by compound 1 at each concentration was calculated as in the following. […] The number of the test samples measured was 10 or 11. […]
# [2] = tested on: mossy fiber-CA3 field pyramidal cell of hippocampal slice; test: LTP in mossy fiber-CA3 field pyramidal cell of hippocampal slice, population spikes after tetanic stimulation; assay type: cell-based, guinea pig
# Procedure: Slices (thickness 500 μm, round slice) were prepared from hippocampus removed from male Hartley guinea pigs (body weight 220-350 g) and population spikes were extracellularly recorded. The hippocampal slices were perfused with an artificial cerebrospinal fluid (33-34° C., composition: NaCl, 124 mM; KCl, 5 mM; KH2PO4, 1.24 mM; MgSO4, 1.3 mM; CaCl2, 2.4 mM; NaHCO3, 26 mM; D-glucose, 10 mM) saturated with a mixed gas of oxygen (95%) and carbon dioxide (5%) at flow rate of 1.8-2.0 ml/min. Mossy fiber was stimulated with a stimulating electrode at a voltage of not more than 10 V, frequency of 0.2 Hz and the population spikes in the CA3 field pyramidal cell layer was recorded every 5 minutes. When the population spikes to be recorded were stabilized, tetanic stimulation for induction of LTP was applied. The tetanic stimulation includes stimulation at the same voltage of not more than 10 V, as when the stimulation was applied at a frequency of 0.2 Hz, but upon increase of the frequency to 33 Hz for 5 seconds. The height of from negative peak to the next positive peak of the obtained population spikes after stimulation was measured and taken as an amplitude (population spike amplitude; PSA). The degree of LTP was expressed by a potential variation (%) by the increase in the amplitude of population spikes after tetanic stimulation relative to the average of 4 measurements of the amplitudes of population spikes obtained before tetanic stimulation. Each value was expressed by mean±S.E.M (the number of slices tested was 3 to 8). As the index of the property of a drug, the area (%·min) between the graph from 12 minutes to 62 minutes after tetanic stimulation and the line where the potential variation is 0%, in the time lapse graph of potential variation, was calculated and taken as the magnitude of LTP. Compound 1 was dissolved in and diluted with distilled water and added to perfusate to the concentration of 10^−9 M, 10^−8 M, 10^−7 M and 10^−6 M, respectively, and applied to a hippocmpal slice for […] from 2 minutes before the tetanic stimulation to 4 minutes thereafter. Nothing was added to perfusate for control group.
# The property of compound 1 relative to the magnitude of LTP was tested by one-way analysis of variance and Dunnett's multiple comparison test.
# [3] = tested on: voltage-dependent calcium channel of hippocampus pyramidal cells; test: Voltage-dependent Ca2+ current of rat hippocampus pyramidal cell, whole cell patch-clamp; assay type: cell-based
# Procedure: Hippocampal slices were prepared from the brains of 5- to 14-day-old male Wistar rats and the nerve cells were quickly isolated by trypsin enzyme treatment method. According to the whole cell patch-clamp method, the membrane potential of hippocampus pyramidal cell was fixed at −80 mV and the membrane potential-dependent […] current (Ica) was measured in Cs^+ electrode inner solution and Ba^2+ bath outer solution. The resistance of the electrode was 2-4 MΩ. Compound 1 was added to bath outer solution concentrations of 0.01 μM, 0.1 μM and 1.0 μM, respectively, and perfused with the bath outer solution. Nothing was added to the bath outer solution for the control group. The maximal value of the current (peak amplitude) was measured, and calculated as the variation (%) relative to the value before addition of compound 1. Each value (%) was expressed by mean±S.E.M. The number of measurements was 7. The property of compound 1 was evaluated by Dunnett's multiple comparison test relative to the control group.
# [4] = tested on: voltage-dependent calcium channel of hippocampus pyramidal cell; test: Effect of somatostatin and compound 1 on voltage-dependent Ca2+ current of rat hippocampus pyramidal cell; assay type: cell-based; conditions: compound 1 10^-7 M plus somatostatin 10^-7 M
# Procedure: Hippocampal slices were prepared from the brains of 5- to 14-day-old male Wistar rats and the nerve cells were quickly isolated by trypsin enzyme treatment method. According to the whole cell patch-clamp method, the membrane potential of hippocampus pyramidal cell was fixed at −80 mV and the membrane potential-dependent […] current (Ica) was measured in Cs^+ electrode inner solution and Ba^2+ bath outer solution. The resistance of the electrode was 2-4 MΩ. Compound 1 was added to bath outer solution concentrations of 0.01 μM, 0.1 μM and 1.0 μM, respectively, and perfused with the bath outer solution. Nothing was added to the bath outer solution for the control group. The maximal value of the current (peak amplitude) was measured, and calculated as the variation (%) relative to the value before addition of compound 1. Each value (%) was expressed by mean±S.E.M. The number of measurements was 7. The property of compound 1 was evaluated by Dunnett's multiple comparison test relative to the control group. […]
smiles,measurement,setting,value
"CC(=O)N1CCN(NC(=O)c2ccc(F)cc2)CC1.O [Compound 1, N-(4-acetyl-1-piperazinyl)-p-fluorobenzamide monohydrate]",somatostatin release (%),[1],promoted somatostatin release
same,"potential variation after tetanic stimulation (magnitude of LTP, 12 to 62 min)",[2]; at 10^-7 M and 10^-6 M,increased potential variation
same,response of base before tetanic stimulation (potential variation),"[2]; before tetanic stimulation, compound applied to slice in perfusate",no significant influence
same,LTP enhancing property in hippocampal slice from guinea pig treated with cysteamine,"[2]; cysteamine 200 mg/kg, compound 1 at 10^-7 M",did not show LTP enhancing property
same,concentration at which the action on LTP was maximal,[2]; tested at 10^-9 to 10^-6 M,10^−7 M
same,membrane potential-dependent calcium current (variation of peak amplitude),"[3]; 0.01 μM, 0.1 μM and 1.0 μM, compared to control group, holding -80 mV",significantly promoted
same,shape of dose dependency of the calcium current promotion,[3]; 0.01 to 1.0 μM,bell-shape dose dependency
same,suppressive property of somatostatin on calcium current in the presence of compound 1,[4],completely released

# Source: patent publication US6613572B2, “Agent for expression of long-term potentiation of synaptic transmission comprising compound having brain somatostatin activation property” (priority 1999, dated 2003)
